{
  "source": "patent EP0391462A1",
  "about": "“Synergistic compositions containing ketanserin” (JANSSEN PHARMACEUTICA N.V., priority 1989, dated 1990)",
  "key": {"[1]": {"system": "patients with mild to moderate, uncomplicated, essential hypertension", "format": "in vivo", "details": "absolute value, mean ± standard error; end of 3 month monotherapy (ketanserin 2 weeks 20 mg b.i.d. then 10 weeks 40 mg b.i.d., 9 pts; enalapril 12 weeks 10 mg b.i.d., 7 pts)", "procedure": "The effect of a combination of the compound ketanserin (I) and enalapril on the lowering of blood pressure was investigated in a randomized double-blind parallel group study. Elderly (≧ 50 years) patients with mild to moderate, uncomplicated, essential hypertension (95 mm Hg ≦ DBP ≦ 105 mm Hg at the end of a 3 month period on double blind monotherapy) received ketanserin (1 tab 40 mg b.i.d.) + enalapril (1 tab 10 mg b.i.d.). […] Bloodpressure (SBP, DBP) and heart rate (HR) (mean values ± standard error) are in mm Hg and b.p.m."}, "[2]": {"system": "patients with moderate, uncomplicated hypertension", "details": "difference between treated and untreated patients, mean ± standard error; end of treatment period, 1-2 hours after last dose, seated; ketanserin 40 mg b.i.d., captopril 50 mg b.i.d.", "procedure": "The effect of a combination of the compound ketanserin (I) and an ACE inhibitor, captopril, on the lowering of blood pressure was investigated in a double-blind randomized cross-over study according to a latin square design.\nAdult (≧18 years) patients with moderate, uncomplicated hypertension (105 mmHg ≦ DBP ≦ 115 mmHg at the end of a 1 month placebo wash-out period) were randomly assigned to: - placebo (1 tab q.i.d.); - placebo (1 tab b.i.d.) + ketanserin (1 tab 40 mg b.i.d.); - placebo (1 tab b.i.d.) + captopril (1 tab 50 mg b.i.d.); - ketanserin (1 tab 40 mg b.i.d.) + captopril (1 tab 50 mg b.i.d.).\nAt the end of each treatment period (1-2 hours after the last dose), blood pressure (by a mercury sphygmomanometer) and heart rate (by the palpatory method over a 30˝ period) of patients seated for 10′ were recorded by the same investigator during 3 measurements at 2′ intervals."}},
  "data": [
    {"smiles": "CCOC(=O)[C@H](CCc1ccccc1)N[C@@H](C)C(=O)N1CCC[C@H]1C(=O)O", "note": "[Enalapril, enalapril]", "values": [
      {"measurement": "DBP, End Monotherapy Phase", "setting": "[1]", "result": "101.42±10.07", "unit": "mm Hg"},
      {"measurement": "SBP, End Monotherapy Phase", "setting": "[1]", "result": "160.0±5.77", "unit": "mm Hg"}
    ]},
    {"smiles": "O=C(c1ccc(F)cc1)C1CCN(CCn2c(=O)[nH]c3ccccc3c2=O)CC1", "note": "[Ketanserin, 3-[2-[4-(4-fluorobenzoyl)-1-piperidinyl]ethyl]-2,4(1H,3H)-quinazolinedione]", "values": [
      {"measurement": "difference of diastolic blood pressure (DBP)", "setting": "[2]", "result": "-7.92±1.3", "unit": "mmHg"},
      {"measurement": "difference of systolic blood pressure (SBP)", "setting": "[2]", "result": "-8.33±2.33", "unit": "mmHg"},
      {"measurement": "DBP, End Monotherapy Phase", "setting": "[1]", "result": "102.22±5.65", "unit": "mm Hg"},
      {"measurement": "SBP, End Monotherapy Phase", "setting": "[1]", "result": "148.88±13.64", "unit": "mm Hg"}
    ]},
    {"smiles": "C[C@H](CS)C(=O)N1CCC[C@H]1C(=O)O", "note": "[Captopril, captopril]", "values": [
      {"measurement": "difference of diastolic blood pressure (DBP)", "setting": "[2]", "result": "-8.75±1.3", "unit": "mmHg"},
      {"measurement": "difference of systolic blood pressure (SBP)", "setting": "[2]", "result": "-8.75±1.96", "unit": "mmHg"}
    ]}
  ]
}
